Data reported in patent US20250288553A1, “Antimicrobial Compositions and Uses for Treatment of Clostridioides difficile, Mycobacterium tuberculosis, and Enterococcus faecalis Infection” (priority 2022, published 2025).
≈ marks a conversion by molar mass, not a printed value. Where “and” joins values, the source holds several entries; their conditions need not be identical. Equal values may be shown once. Read-outs that look alike come from different tables or passages of the source.

What was measured:
[1] = tested on: replicating Mtb-lux (Mycobacterium tuberculosis CDC1551 with pMV306hsp+LuxG13); type: cell-based
[2] = tested on: dormant Mtb-lux (Mycobacterium tuberculosis CDC1551 with pMV306hsp+LuxG13); type: cell-based; conditions: for R/D (MICR/MICD, Mtb-lux): ratio replicating MIC to dormant MIC
[3] = tested on: Clostridioides difficile NAP1; assay: MIC against C. difficile NAP1, modified broth microdilution; conditions: for MIC C. difficile: NAP1, modified broth microdilution, 48 h, anaerobic; for MIC: Clostridioides difficile, NAP1, 48 h, read-out: MIC C. difficile, NAP1, modified broth microdilution, 48 h, anaerobic
[4] = tested on: Staphylococcus aureus ATCC 25923; assay: MIC against S. aureus, REMA; conditions: visual, 24 h
[5] = tested on: Bacillus subtilis ATCC 23857; assay: MIC against B. subtilis, REMA; conditions: for MIC B. subtilis: REMA, visual, 24 h
[6] = tested on: TcdA production in C. difficile NAP1; assay: Toxin analysis: extracellular TcdA of C. difficile NAP1 at sub-MICs, western blot; type: cell-based, Clostridioides difficile; set-up: Concentration at which TcdA was undetectable: unit not given here; conditions: for Effect on TcdA toxin production: NAP1 challenged with 0.5×, 0.25×, 0.125× MIC, 48 h, TcdA normalized to total protein
Procedure: After a 48 h incubation of NAP1 challenged with several dilutions of each compound, extracellular toxin in spent media derived from triplicate cultures was assessed with western blots using a monoclonal antibody against TcdA. Semi-quantitative analysis of toxin levels was performed via densitometry of TcdA band intensity with respect to total protein as measured by the Bradford assay. Semi-quantitative plots are shown below each representative blot. (a) Toxin production in BHIS (NAP1) and BHIS with 5% DMSO (vehicle). (b) Toxin production from cultures challenged with sub-MICs of fidaxomicin, (c) vancomycin, and (d-j) (+)-puupehenone and selected derivatives. Data points represent the means of adjusted toxin levels derived from triplicate cultures, while error bars represent standard deviations. Statistical analysis was performed in GraphPad Prism 8 using unpaired t-tests. *P<0.05; **P<0.01.
To account for changes in biomass, a semi-quantitative analysis of TcdA production was performed by normalizing the target bands from representative western blots to the amount of total protein in each sample.
Toxin analysis. Toxin production was determined by analyzing the amount of extracellular toxin in the cultures from the ASTs described above. At 48 h, total protein of each culture was determined with the Bradford assay using bovine serum albumin (BSA) as a standard.^53 Cultures were then centrifuged at 5,000×g for 5 minutes to clear the supernatants which were separately collected and frozen at −20° C. After thawing at room temperature, cell-free supernatants were mixed 1:1 with 2× Laemmli buffer and incubated in a sand bath at 100° C. for 5 minutes. Twenty microliters of denatured samples were loaded onto 7.5% Tris-glycine gels and electrophoresed at 200 V for 1 h. After electrophoresis, samples were transferred to polyvinylidene difluoride membranes at 4° C. overnight at 30 V. Membranes were incubated in a blocking buffer (20 mM Tris-HCl, 150 mM NaCl, 0.01 mM ethylenediaminetetraacetic acid, 0.1% Tween 20, 1% BSA, [pH 7.5]) for 1 h at room temperature. TcdA was detected with a monoclonal mouse anti-TcdA antibody (PCG4.1, Novus Biologicals) and a rabbit anti-mouse antibody conjugated with alkaline phosphatase. Blots were visualized with a ChemiDoc XRS+ imaging system (Bio-Rad).
Semi-quantitative analysis of TcdA was performed using Image Lab 6.0 software (Bio-Rad). Briefly, after subtracting background noise, peaks corresponding to the target band were selected with the software's Lane Profile tool. The density of each peak generated a value (arbitrary units) that was normalized to the total protein amount of each respective sample. […] These losses of activity prevented us from performing statistical analysis from multiple experiments, as the sub-MICs were not always the same. Since there were no changes to the methodology described, several other reasons could have accounted for decreased activity, such as compound stability, freeze-thaw, and adherence to plastic. Nevertheless, the toxin results were reproducible, irrespective of the exact sub-MICs on different days.

[7] = tested on: Mycobacterium tuberculosis H37Ra ATCC 25177; assay: MIC against Mtb H37Ra, resazurin microtiter assay (REMA); type: cell-based; conditions: for MIC: Mycobacterium tuberculosis, 336 h
[8] = tested on: J774A.1 (murine macrophage-like) cell line; assay: Cytotoxicity assay J774A.1; type: cell-based
Procedure: (§1) To evaluate the selectivity of the top six compounds from the Mtb-lux activity screen (Table 2), cytotoxicity for two different mammalian cell lines was determined. The IC50 was calculated for each compound against J774A.1 and HepG2 cell lines. The selectivity index (SI) for both replicating and dormant conditions was then calculated by taking the IC50 and dividing it by the corresponding MIC (SIR=IC50/MICR, SID=IC50/MICD)^40. Consistent with the experience, the J774 macrophage cell line was more sensitive to all compounds tested. […] Based on these observations, this triacetate protected puupehenone represents a promising candidate for further optimization.
(§2) Cytotoxicity assay: Cytotoxicity was assessed using J774A.1 (murine macrophage-like) and HepG2 (human liver carcinoma) cell lines using 2-fold dilution of the compounds as described previously^42, 43. IC50 values were determined using nonlinear regression fitting of the databy GraphPad Prism. The selectivity Index (SI) was calculated as IC50/MIC.

[9] = Cytotoxicity assay J774A.1; type: cell-based, murine; conditions: mouse, J774A.1 macrophage-like cells; J774A.1 cells; read-out: Cytotoxicity (IC50) J774
Procedure: as §1, §2

[10] = tested on: HepG2 (human liver carcinoma) cell line; assay: Cytotoxicity assay HepG2
Cytotoxicity assay HepG2 = conditions: human
[11] = tested on: Enterococcus faecalis ATCC 29212; assay: MIC against E. faecalis, REMA; conditions: for MIC E. faecalis: REMA, visual, 24 h
[12] = determined visually by REMA assay, 14-day incubation, read-out: MIC Mtb H37Ra
[13] = read-out: MIC Mtb H37Ra, determined visually by REMA assay, 14-day incubation

CO[C@@H]1c2cc(OC(=O)c3ccccc3)c(OC(=O)c3ccccc3)cc2O[C@@]2(C)CC[C@H]3C(C)(C)CCC[C@]3(C)[C@@H]12 [Compound 18]
MICR (Mtb-lux) [1]: >200 µg/mL
MICD (Mtb-lux) [2]: 48.3 µg/mL

CC1(C)CCC[C@]2(C)[C@@H](Cc3cc(O)ccc3O)[C@](C)(O)CC[C@@H]12 [Compound 41, (+)-Yahazunol]
MIC C. difficile [3]: did not inhibit
MIC S. aureus [4]: 33.2 µg/mL (≈ 99.9 µM)
MIC B. subtilis [5]: 33.2 µg/mL (≈ 99.9 µM)

CC1(C)CCC[C@]2(C)[C@H]3C=C4C=C(O)C(=O)C=C4O[C@@]3(C)CC[C@@H]12 [Compound 1, (+)-Puupehenone]
MIC [3]: 2 to 4 µg/mL (≈ 6.09 to 12.2 µM)
MIC C. difficile [3]: 2.0 µg/mL (≈ 6.09 µM)
MICR (Mtb-lux) [1]: 3.0 µg/mL
Concentration at which TcdA was undetectable ([6]; NAP1, 48 h, western blot): 1
MICD (Mtb-lux) [2]: 0.5 µg/mL
R/D (MICR/MICD, Mtb-lux) [2]: 6.0
MIC [7, 12]: 32.8 µg/mL (≈ 99.9 µM)
SI (SID) J774 [8]: 46.4
SI (SIR) J774 [8]: 7.7
IC50 [9]: 23.2 µM
SI (SID) HepG2 [10]: 141.2
SI (SIR) HepG2 [10]: 23.5
IC50 (Cytotoxicity assay HepG2): 70.6 µM

CCC(=O)Oc1cc2c(cc1OC(=O)CC)[C@@H](OC)[C@@H]1[C@@]3(C)CCCC(C)(C)[C@@H]3CC[C@]1(C)O2 [Compound 16]
MICR (Mtb-lux) [1]: 8.9 µg/mL
MICD (Mtb-lux) [2]: 1.7 µg/mL
R/D (MICR/MICD, Mtb-lux) [2]: 5.2
MIC [7, 12]: 23.6 µg/mL (≈ 49.9 µM)
SI (SID) J774 [8]: 35.7
SI (SIR) J774 [8]: 6.8
IC50 [9]: 60.6 µM
SI (SID) HepG2 [10]: > 117.6
SI (SIR) HepG2 [10]: > 22.5
IC50 (Cytotoxicity assay HepG2): > 200 µM

CC(=O)Oc1cc2c(cc1OC(C)=O)[C@@H](OC(C)=O)[C@@H]1[C@@]3(C)CCCC(C)(C)[C@@H]3CC[C@]1(C)O2 [Compound 20, 15-α-acetoxypuupehenol diacetate]
MIC [3]: 2 to 4 µg/mL
MIC C. difficile [3]: 2.0 µg/mL
MICR (Mtb-lux) [1]: 6.0 µg/mL
Effect on TcdA toxin production [6]: decreased the amount of toxin in a similar concentration-dependent manner
MICD (Mtb-lux) [2]: 1.4 µg/mL
R/D (MICR/MICD, Mtb-lux) [2]: 4.3
MIC [7, 13]: 11.8 µg/mL
SI (SID) J774 [8]: > 142.3
SI (SIR) J774 [8]: > 33.3
Cytotoxicity (IC50) J774 ([8]; J774A.1 cells): no cytotoxicity
IC50 [9]: > 200 µM
SI (SID) HepG2 [10]: > 142.3
SI (SIR) HepG2 [10]: > 33.3
Cytotoxicity (IC50) HepG2 ([10]; HepG2 cells): no cytotoxicity
IC50 (Cytotoxicity assay HepG2): > 200 µM

CC1(C)CCCC2(C)C1CCC(C)(O)C2Cc1ccc(O)cc1O (stereo not shown) [Compound 36]
MIC C. difficile [3]: 8.0 µg/mL (≈ 24.1 µM)
Effect on TcdA toxin production [6]: did not appear to substantially change toxin production
MIC S. aureus [4]: 16.6 µg/mL (≈ 49.9 µM)
MIC B. subtilis [5]: 8.2 µg/mL and 8.3 µg/mL
MIC E. faecalis [11]: 16.2 µg/mL (≈ 48.7 µM)

CO[C@@H]1c2cc(OC(=O)C(C)(C)C)c(O)cc2O[C@@]2(C)CC[C@H]3C(C)(C)CCC[C@]3(C)[C@@H]12 [Compound 19, 15-α-methoxypuupehenol monopivalate]
MIC [3]: 2 to 4 µg/mL (≈ 4.5 to 9 µM)
MIC C. difficile [3]: 4.0 µg/mL (≈ 9 µM)
MICR (Mtb-lux) [1]: 12.7 µg/mL
Effect on TcdA toxin production [6]: did not appear to substantially change toxin production
MICD (Mtb-lux) [2]: 1.5 µg/mL
MIC [7, 13]: 44.4 µg/mL (≈ 99.9 µM)
SI (SID) J774 [8]: 37.6
SI (SIR) J774 [8]: 4.4
IC50 [9]: 56.4 µM
SI (SID) HepG2 [10]: > 133.3
SI (SIR) HepG2 [10]: > 15.7
IC50 (Cytotoxicity assay HepG2): > 200 µM
MIC ([5]; Bacillus subtilis, ATCC23857, 24 h, read-out: MIC B. subtilis): 22.2 µg/mL (≈ 50 µM)
MIC ([11]; Enterococcus faecalis, ATCC29212, 24 h, read-out: MIC E. faecalis): 22.2 µg/mL (≈ 50 µM)

CC1(C)CCCC2(C)C1CCC(C)(O)C2Cc1ccc(O)c(O)c1 (stereo not shown) [Compound 38]
MIC C. difficile [3]: did not exhibit any activity
MICR (Mtb-lux) [1]: 58.0 µg/mL
MICD (Mtb-lux) [2]: 42.0 µg/mL
R/D (MICR/MICD, Mtb-lux) [2]: 1.4
MIC S. aureus [4]: did not exhibit any activity
MIC B. subtilis [5]: did not exhibit any activity
MIC E. faecalis [11]: did not exhibit any activity

CCC(=O)Oc1cc2c(cc1OC(=O)CC)[C@@H](OC(=O)CC)[C@@H]1[C@@]3(C)CCCC(C)(C)[C@@H]3CC[C@]1(C)O2 [Compound 21]
MICR (Mtb-lux) [1]: 2.8 µg/mL
MICD (Mtb-lux) [2]: 1.0 µg/mL and 1 µg/mL
R/D (MICR/MICD, Mtb-lux) [2]: 2.8
MIC [7, 13]: 12.9 µg/mL (≈ 25.1 µM)
MIC Mtb H37Ra ([7]; determined visually by REMA assay, 14-day incubation): 12.85 µg/mL (≈ 25 µM)
SI (SID) J774 [8]: 26.4
SI (SIR) J774 [8]: 9.4
IC50 [9]: 26.4 µM
SI (SID) HepG2 [10]: 64.2
SI (SIR) HepG2 [10]: 22.9
IC50 (Cytotoxicity assay HepG2): 64.2 µM

CC(C)C(=O)Oc1cc2c(cc1OC(=O)C(C)C)[C@@H](OC(=O)C(C)C)[C@@H]1[C@@]3(C)CCCC(C)(C)[C@@H]3CC[C@]1(C)O2 [Compound 22]
MICR (Mtb-lux) [1]: 7.6 µg/mL
MICD (Mtb-lux) [2]: 88.8 µg/mL
R/D (MICR/MICD, Mtb-lux) [2]: 0.08

CC1(C)CCC[C@]2(C)[C@@H]1CC[C@]1(C)Oc3ccc(O)cc3C[C@@H]21 [Compound 31, (+)-Chromazonarol]
MIC C. difficile [3]: inactive
MICR (Mtb-lux) [1]: 56.5 µg/mL
MICD (Mtb-lux) [2]: 32 µg/mL
R/D (MICR/MICD, Mtb-lux) [2]: 1.8
MIC Mtb H37Ra [7]: 31.4 µg/mL (≈ 99.9 µM)
MIC S. aureus [4]: inactive
MIC B. subtilis [5]: 8.6 µg/mL (≈ 27.3 µM)
MIC E. faecalis [11]: inactive

CO[C@@H]1c2cc(OC(=O)C(C)C)c(OC(=O)C(C)C)cc2O[C@@]2(C)CC[C@H]3C(C)(C)CCC[C@]3(C)[C@@H]12 [Compound 17]
MICR (Mtb-lux) [1]: 8.6 µg/mL
MICD (Mtb-lux) [2]: 10.1 µg/mL
R/D (MICR/MICD, Mtb-lux) [2]: 0.9
MIC [7, 12]: 25 µg/mL (≈ 49.9 µM)

CN[C@H](CC(C)C)C(=O)N[C@H]1C(=O)N[C@@H](CC(N)=O)C(=O)N[C@H]2C(=O)N[C@H]3C(=O)N[C@H](C(=O)N[C@H](C(=O)O)c4cc(O)cc(O)c4-c4cc3ccc4O)[C@H](O)c3ccc(c(Cl)c3)Oc3cc2cc(c3O[C@@H]2O[C@H](CO)[C@@H](O)[C@H](O)[C@H]2O[C@H]2C[C@](C)(N)[C@H](O)[C@H](C)O2)Oc2ccc(cc2Cl)[C@H]1O [vancomycin, reference compound]
Effect on TcdA toxin production [6]: reduced toxin production in a concentration-dependent manner

CC1(C)CCCC2(C)C1CCC(C)(O)C2Cc1ccc(OCc2ccccc2)cc1 (stereo not shown) [Compound 33]
MICR (Mtb-lux) [1]: 57.5 µg/mL
MICD (Mtb-lux) [2]: 40.4 µg/mL
R/D (MICR/MICD, Mtb-lux) [2]: 1.4
MIC Mtb H37Ra [7]: 40.6 µg/mL (≈ 99.8 µM)
